For assay [1], the system named is HCV genotype 1a (H77 strain) replicon in HUH-7 cells. The experiment in a line: HCV replicon luciferase reporter assay, genotype 1a. It is filed as cell-based. As to conditions: Hepatitis C virus, Huh-7, 72 h, HCV genotype 1a replicon luciferase, 3 days incubation, range class, read-out: LE_1a (EC50, range). The method in brief: (§1)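 Twenty-point, threefold compound titrations (0.5% DMSO) were incubated 3 days at 37 °C with 3.0×10^3 HUH-7 cells/well in 4% FCS. The cells stably carried luciferase replicons: genotype 1b Con1 (S1179I) or 1a H77 (NS3 P1496L, NS5A S2204I). Renilla signal was read after 2 h with 7.5 μM EnduRen, and EC50 was taken from a four-parameter logistic fit. Cytotoxicity (CC50) was measured by Cell Titer-Blue, 8 h.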

In assay [2] the test system is HCV genotype 1b (Con1) replicon in HUH-7 cells. The experiment in a line: HCV replicon luciferase reporter assay, genotype 1b. It is filed as cell-based. To be noted: Hepatitis C virus, 72 h, HCV genotype 1b replicon luciferase, 3 days incubation, range class, read-out: LE_1b (EC50, range). A digest of the protocol: as §1

pEC50: −log10 of the molar value.

What is called pEC50 is the negative decadic logarithm of the EC50, by convention in mol/L. With `COc1ccc2c(O[C@@H]3C[C@H]4C(=O)N[C@]5(C(=O)NS(=O)(=O)C6CC6)C[C@H]5/C=C\CC[C@H](C)C[C@@H](C)[C@H](NC(=O)O[C@@H]5C[C@@H]6C[C@@H]6C5)C(=O)N4C3)nc(-c3ccc(OC(C)C)nc3)cc2c1` [Compound 5218, (1R,3r,5S)-bicyclo[3.1.0]hexan-3-yl ((2R,6S,7R,9S,13aS,14aR,16aS,Z)-14a-((cyclopropylsulfonyl)carbamoyl)-2-((3-(6-isopropoxypyridin-3-yl)-6-methoxyisoquinolin-1-yl)oxy)-7,9-dimethyl-5,16-dioxo-1,2,3,5,6,7,8,9,10,11,13a,14,14a,15,16,16a-hexadecahydrocyclopropa[e]pyrrolo[1,2-a][1,4]diazacyclopentadecin-6-yl)carbamate], the pEC50 in assay [1] and in assay [2] was > 8.26 in each case.
Consider `COc1ccc2c(O[C@@H]3C[C@H]4C(=O)N[C@]5(C(=O)NS(=O)(=O)C6CC6)C[C@H]5/C=C\CC[C@@H](C)C[C@@H](C)[C@H](NC(=O)O[C@@H]5C[C@@H]6C[C@@H]6C5)C(=O)N4C3)nc(-c3ccc(OC(C)C)nc3)cc2c1` [Compound 5219, (1R,3r,5S)-bicyclo[3.1.0]hexan-3-yl ((2R,6S,7R,9R,13aS,14aR,16aS,Z)-14a-((cyclopropylsulfonyl)carbamoyl)-2-((3-(6-isopropoxypyridin-3-yl)-6-methoxyisoquinolin-1-yl)oxy)-7,9-dimethyl-5,16-dioxo-1,2,3,5,6,7,8,9,10,11,13a,14,14a,15,16,16a-hexadecahydrocyclopropa[e]pyrrolo[1,2-a][1,4]diazacyclopentadecin-6-yl)carbamate], for which the negative logarithm of the EC50 (pEC50) in assay [1] and in assay [2] was > 8.26 throughout.
On to `COc1ccc2c(O[C@@H]3C[C@H]4C(=O)N[C@]5(C(=O)NS(=O)(=O)C6(C)CC6)C[C@H]5/C=C\CC[C@H](C)C[C@@H](C)[C@H](NC(=O)O[C@@H]5C[C@@H]6C[C@@H]6C5)C(=O)N4C3)nc(-c3ccc(OC(C)C)nc3)cc2c1` [Compound 5228, (1R,3r,5S)-bicyclo[3.1.0]hexan-3-yl ((2R,6S,7R,9S,13aS,14aR,16aS,Z)-2-((3-(6-isopropoxypyridin-3-yl)-6-methoxyisoquinolin-1-yl)oxy)-7,9-dimethyl-14a-(((1-methylcyclopropyl)sulfonyl)carbamoyl)-5,16-dioxo-1,2,3,5,6,7,8,9,10,11,13a,14,14a,15,16,16a-hexadecahydrocyclopropa[e]pyrrolo[1,2-a][1,4]diazacyclopentadecin-6-yl)carbamate], for which the values for the pEC50 in assay [1] and in assay [2] were 6.99 to 8.32 and > 8.26, respectively.
Taken in the same sequence, the figures for `COc1ccc2c(O[C@@H]3C[C@H]4C(=O)N[C@]5(C(=O)NS(=O)(=O)C6(C)CC6)C[C@H]5/C=C\CC[C@@H](C)C[C@@H](C)[C@H](NC(=O)O[C@@H]5C[C@@H]6C[C@@H]6C5)C(=O)N4C3)nc(-c3ccc(OC(C)C)nc3)cc2c1` [Compound 5229, (1R,3r,5S)-bicyclo[3.1.0]hexan-3-yl ((2R,6S,7R,9R,13aS,14aR,16aS,Z)-2-((3-(6-isopropoxypyridin-3-yl)-6-methoxyisoquinolin-1-yl)oxy)-7,9-dimethyl-14a-(((1-methylcyclopropyl)sulfonyl)carbamoyl)-5,16-dioxo-1,2,3,5,6,7,8,9,10,11,13a,14,14a,15,16,16a-hexadecahydrocyclopropa[e]pyrrolo[1,2-a][1,4]diazacyclopentadecin-6-yl)carbamate] were > 8.26 and > 8.26.
`C[C@H]1CC/C=C\[C@@H]2C[C@@]2(C(=O)NS(=O)(=O)C2CC2)NC(=O)[C@@H]2C[C@@H](Oc3nccc4c5c(ccc34)OC(F)(F)O5)CN2C(=O)[C@@H](NC(=O)O[C@@H]2C[C@@H]3C[C@@H]3C2)[C@H](C)C1` [Compound 5273, (1R,3r,5S)-bicyclo[3.1.0]hexan-3-yl ((2R,6S,7R,9S,13aS,14aR,16aS,Z)-14a-((cyclopropylsulfonyl)carbamoyl)-2-((2,2-difluoro-[1,3]dioxolo[4,5-f]isoquinolin-6-yl)oxy)-7,9-dimethyl-5,16-dioxo-1,2,3,5,6,7,8,9,10,11,13a,14,14a,15,16,16a-hexadecahydrocyclopropa[e]pyrrolo[1,2-a][1,4]diazacyclopentadecin-6-yl)carbamate]: the pEC50 in assay [1] and in assay [2] was 6.99 to 8.32 throughout.
As for `C[C@@H]1CC/C=C\[C@@H]2C[C@@]2(C(=O)NS(=O)(=O)C2CC2)NC(=O)[C@@H]2C[C@@H](Oc3nccc4c5c(ccc34)OC(F)(F)O5)CN2C(=O)[C@@H](NC(=O)O[C@@H]2C[C@@H]3C[C@@H]3C2)[C@H](C)C1` [Compound 5274, (1R,3r,5S)-bicyclo[3.1.0]hexan-3-yl ((2R,6S,7R,9R,13aS,14aR,16aS,Z)-14a-((cyclopropylsulfonyl)carbamoyl)-2-((2,2-difluoro-[1,3]dioxolo[4,5-f]isoquinolin-6-yl)oxy)-7,9-dimethyl-5,16-dioxo-1,2,3,5,6,7,8,9,10,11,13a,14,14a,15,16,16a-hexadecahydrocyclopropa[e]pyrrolo[1,2-a][1,4]diazacyclopentadecin-6-yl)carbamate], the pEC50 in assay [1] and in assay [2] was > 8.26 throughout.
As for `C[C@@H]1CC/C=C\[C@@H]2C[C@@]2(C(=O)NS(=O)(=O)C2(CF)CC2)NC(=O)[C@@H]2C[C@@H](Oc3nccc4c5c(ccc34)OCCO5)CN2C(=O)[C@@H](NC(=O)OC(C)(C)C)[C@H](C)C1` [Compound 5321, tert-butyl ((2R,6S,7R,9R,13aS,14aR,16aS,Z)-2-((2,3-dihydro-[1,4]dioxino[2,3-f]isoquinolin-7-yl)oxy)-14a-(((1-(fluoromethyl)cyclopropyl)sulfonyl)carbamoyl)-7,9-dimethyl-5,16-dioxo-1,2,3,5,6,7,8,9,10,11,13a,14,14a,15,16,16a-hexadecahydrocyclopropa[e]pyrrolo[1,2-a][1,4]diazacyclopentadecin-6-yl)carbamate], the pEC50 in assay [1] and in assay [2] was > 8.26 each time.
As for `CC[C@@H]1C[C@H](C)CC/C=C\[C@@H]2C[C@@]2(C(=O)NS(=O)(=O)C2(CF)CC2)NC(=O)[C@@H]2C[C@@H](Oc3nccc4c5c(ccc34)N(C)CCO5)CN2C(=O)[C@H]1NC(=O)OC(C)(C)C(C)(F)F` [Compound 5324, 3,3-difluoro-2-methylbutan-2-yl ((2R,6S,7R,9R,13aS,14aR,16aS,Z)-7-ethyl-14a-(((1-(fluoromethyl)cyclopropyl)sulfonyl)carbamoyl)-9-methyl-2-((4-methyl-3,4-dihydro-2H-[1,4]oxazino[2,3-f]isoquinolin-7-yl)oxy)-5,16-dioxo-1,2,3,5,6,7,8,9,10,11,13a,14,14a,15,16,16a-hexadecahydrocyclopropa[e]pyrrolo[1,2-a][1,4]diazacyclopentadecin-6-yl)carbamate], the pEC50 in assay [1] and in assay [2] was > 8.26 in each case.
Take `CC[C@@H]1C[C@H](C)CC/C=C\[C@@H]2C[C@@]2(C(=O)NS(=O)(=O)C2(C)CC2)NC(=O)[C@@H]2C[C@@H](Oc3nc4c(c5ccccc35)OCCC4)CN2C(=O)[C@H]1NC(=O)OC(C)(C)C(F)(F)F` [Compound 6028, 1,1,1-trifluoro-2-methylpropan-2-yl ((2R,6S,7R,9R,13aS,14aR,16aS,Z)-2-((3,4-dihydro-2H-pyrano[3,2-c]isoquinolin-6-yl)oxy)-7-ethyl-9-methyl-14a-(((1-methylcyclopropyl)sulfonyl)carbamoyl)-5,16-dioxo-1,2,3,5,6,7,8,9,10,11,13a,14,14a,15,16,16a-hexadecahydrocyclopropa[e]pyrrolo[1,2-a][1,4]diazacyclopentadecin-6-yl)carbamate]: the pEC50 in assay [1] and in assay [2] was > 8.26 in each case.
Take `C[C@@H]1CC/C=C\[C@@H]2C[C@@]2(C(=O)NS(=O)(=O)C2(CF)CC2)NC(=O)[C@@H]2C[C@@H](Oc3nc4c(c5ccccc35)OCCC4)CN2C(=O)[C@@H](NC(=O)OC(C)(C)C(C)(F)F)[C@H](C)C1` [Compound 6032, 3,3-difluoro-2-methylbutan-2-yl ((2R,6S,7R,9R,13aS,14aR,16aS,Z)-2-((3,4-dihydro-2H-pyrano[3,2-c]isoquinolin-6-yl)oxy)-14a-(((1-(fluoromethyl)cyclopropyl)sulfonyl)carbamoyl)-7,9-dimethyl-5,16-dioxo-1,2,3,5,6,7,8,9,10,11,13a,14,14a,15,16,16a-hexadecahydrocyclopropa[e]pyrrolo[1,2-a][1,4]diazacyclopentadecin-6-yl)carbamate]: the pEC50 in assay [1] and in assay [2] was > 8.26 throughout.

The record behind these values is patent publication US9527885B2, “Hepatitis C virus inhibitors” (BRISTOL-MYERS SQUIBB COMPANY, priority 2011, dated 2016).
